Experimental data: patent US7635722B1, “Chemical induced intracellular hyperthermia” (priority 1998, dated 2009)
Read-outs that look alike come from different tables or passages of the source.

Legend:
[1] = test system: Kaposi's sarcoma and nontumorous oral mucosa tissues; experiment: microcalorimetric heat output of biopsy specimens; design: species or system human; conditions: biopsy specimens in 30 uM DNP
Description: Laboratory studies: EKG, serum electrolytes, renal and liver function tests were normal. Hematocrit was 35.5%, WBC was 9,900 with 81% neutrophils, 4 bands, 11 lymphocytes and 4 monocytes. Platelets were 314,000/mm^3. Viral load was 400,000 copies/ml (Amplicor HIV Monitor test, Roche). A CD4^+ T cell count was quantified by flow cytometry at 250/mm^3. They were antibody positive for hepatitis C. […] Karnofsky score was greater than 70. Normal and tumor tissue biopsies, 3 to 6 mm in diameter, from the oral cavity and anus were obtained. The tissues were equally divided, weighed and placed in 4° C. Ringers lactate solution. Histologically confirmed normal and KS tissues were then subjected to microcalorimetric measurements in a thermal activity monitor (ThermoMetric, Jarfalla, Sweden). Recorded heat output (μW/min) was 8.2-8.5 times greater for the KS sarcoma lesions than nontumorous oral mucosa tissues. Repeat measurements with biopsies specimens in 30 uM DNP increased heat production in tumorous tissues 20.5 times more than nontumorous specimens.

[2] = type: in vivo, human
Experimental: Placement of physiologic monitoring sensors, intravenous fluids, supplemental oxygen (4 l/min) and optional oral diazepam sedation (5-10 mg) is initiated prior to treatment. Patients receive 0.85 to 1.0 liter of intravenous (IV) 5% dextrose in 0.25 normal saline per hour alternated with 5% dextrose in 0.5 normal saline plus 7.5 to 10 meq of KCl per liter to insure a urinary output of no less than 1 ml/kg/hr. […] Two hours after treatment and 48 hours post-treatment, serum chemistries and hematologic profiles are repeated. A typical patient flow chart is depicted in FIG. 14.
Pretreatment protocol: the patient was given 10 mg diazepam by mouth and dressed into a modified wet suit. The wet suit was cut lengthwise at the arms and legs. Velcro strappings were attached at the cuttings for closure, rapid removal or exposure of the limb(s). After placement of monitoring sensors, they were started on IV fluids of 5% dextrose, 0.5 normal saline with 7 meq K^+, infused at an initial rate of 12 cc/kg/hr. Evaporative heat loss from the head was minimized by a plastic shower cap and towels. A 401AC temperature probe (YSI Incorporated, Yellow Springs, Ohio) was inserted 11 cm. into the rectum. […] A TEEM 100 Metabolic Analysis System (AeroSport Inc., Ann Arbor, Mich.), with a modified face mask and oxygen delivery system (38-40% 02 saturation) for patient comfort and increased accuracy, was attached to the patient. Oxygen consumption (V02), carbon dioxide production (VC02), expired air volume (VE), heart rate (HR), and Kcal of heat produced were measured in 20 second intervals and extrapolated to minute or hourly rates.
(§1) Pretreatment protocol: all medications were stopped 2 weeks prior to treatment. The patient refused taking diazepam, placement of a Foley catheter and oxygen face mask. They dressed themself into a dry cold water immersion suit (Stearns, ISS-590I, Universal Adult) designed to prevent heat loss and modified for easy placement of physiologic monitors. Equipment for measurement of heart rate, temperature, carbon dioxide production and Kcal of heat produced were conducted as outlined in Example 1. An oral breathing tube was used to measure V02 from room air. Urine output was measured when the patient voluntarily urinated through a “Texas” catheter (superficial condom tightly fitted around the head of the penis with tubing connected to urine collection bag). The patient was informed that hyperthermia would be administered as tolerated by their stamina and monitored clinical parameters, not to exceed 5 hours, on a daily or every other day basis, for a total of 5 sessions.
Pretreatment protocol: the evening prior treatment the patient was instructed not to eat and dress in cotton undergarments. Approximately 4 hours prior to treatment 2 mg alprazolam was administered by mouth. The patient dressed themself into a dry cold water immersion suit (Stearns, previously described) with headgear. Monitoring sensors, including EKG display, IV fluids and Foley catheter were attached and the suit was zipped closed. The patient opted for oxygen supplementation. The modified face mask was connected to the TEEM 100 metabolic Analysis System for V02 measurements. Data was recorded as previously described.
Pretreatment protocol: the patient was transfused with three units of packed red blood cells. A Foley catheter was inserted on each day of treatment. They were covered in a water soaked blanket containing a polyethylene lining. A shower cap with towels was used to prevent heat loss from the head. Intravenous lines were placed into both arms with 19 gauge intracaths. EKG, heart rate, rectal thermistor, and V02 monitors were attached. Oxygen supplemented facemask and equipment was attached and data monitored as previously described under Example 1.
Pretreatment protocol: the patient was transfused with 2 units of packed red blood cells 48 hours prior to undergoing treatment. Intravenous fluids (Lactated Ringer's solution) were administered at a rate of 100 cc/hour. […]

HIV = experiment: DNP hyperthermia, HIV disease (Example 2); type: in vivo, human
Experimental: as §1
Treatment procedure: Baseline reading for 5 minutes established an average V02 of 300 cc/min. An initial dose of 2 mg/kg of DNP was administered over a 2 minute period. V02 increased and stabilized at 15 minutes at 340-380 cc/min. An additional 2 mg/kg DNP infusion was given, the V02 increased and stabilized at 610-630 cc/min. […] Norepinephrine bitartrate (Levophed) was given IV drip at a dose of 1 microgram/min. and adjusted to maintain blood pressure at 130/80. Approximately 1 minute after initiating the vasopressor, heart rate increased from 90 to 100 and V02 to 0.85 liters/min. […] V02 was maintained at 1.0 liters/min. by lowering or increasing the dose of norepinephrine. An additional infusion of 1 mg/kg DNP was given at hour 4 to correct a dropping V02. On occasions when the core temperature increased above 41.6° C., a lower extremity was exposed for evaporative heat loss. […] The protocol was repeated consecutively for 5 days without the additional use of vasopressors.

[3] = Example 3, peak after second dose of 2.0 mg/kg DNP
[4] = Example 3, stable plateau after additional 1.0 mg/kg DNP
[5] = Example 4, DNP 1 mg/kg + 3 x 0.5 mg/kg after mephenteramine

SMILES: O=[N+]([O-])c1ccc(O)c([N+](=O)[O-])c1 [DNP, 2,4-dinitrophenol]
- heat production in tumorous tissues versus nontumorous specimens [1]: 20.5 times
- rectal body temperature ([2]; Example 1, DNP 1 + 3 mg/kg IV plus glucagon, maintained about 1 hour): 40 °C
- post-treatment toxicity ([2]; Example 1, DNP with glucagon): No immediate or delayed post-treatment toxicity
- V02 above baseline ([2]; Example 1, stabilized after initial 1 mg/kg DNP IV): 40%
- V02 ([2]; Example 2, 15 minutes after initial 2 mg/kg DNP, baseline 300 cc/min): 340-380 cc/min
- V02 ([2]; Example 2, after additional 2 mg/kg DNP infusion): 610-630 cc/min
- blood pressure ([2]; Example 2, gradual fall noted at 90 minutes): 100/60
- repeat blood work ([2]; Example 2, on days of treatment): no significant hematologic, electrolyte, liver or kidney changes from baseline
- tolerability of the procedure ([2]; Example 2, period of 7 hours): without any untoward effects
- body core temperature ([2]; Example 2, within 60 minutes, DNP 2 + 2 mg/kg): 39.4 °C
- tolerability of the procedure ([2]; Example 3): experienced no problems during the procedure but was noticeably fatigued by hour 3
- oral temperature ([2]; Example 3, 6.5 to 7 hours after treatment, with chills and malaise): 38.7 degrees centigrade
- V02 per kg ([2]; Example 3, after 1 mg/kg DNP, baseline 3.7): 5.3 cc/kg/min
- V02 ([2]; Example 3, after 1 mg/kg DNP, baseline 220 cc/min): 250 cc/min
- V02 [2, 3]: 400 cc/min
- V02 per kg [2, 3]: 8.8 cc 02/kg/min
- V02 [2, 4]: 600 cc/min
- V02 per kg [2, 4]: 10.8 cc/kg/min
- V02 [2, 5]: 780-820 cc/min
- core temperature, maximum [2, 5]: 41.4 °C
- plateau temperature ([2]; Example 4, maintained 2 hours and 30 minutes): 41.5 °C
- VO2 uptake above baseline ([2]; Example 7, 300 mg capsule of DNP orally, three hours before, immediately prior to emission scan): 40%
- VO2 above baseline ([2]; Example 8, DNP 1 + 2 mg/kg IV): 50%
- blood pressure and cardiac rates ([2]; Example 9): remained within normal limits
- VO2 ([2]; Example 9, 15 minutes after additional 1 mg/kg DNP): 420 cc/minute
- VO2 ([2]; Example 9, 20 minutes after 2 mg/kg DNP IV, baseline 250 cc/minute): 340-360 cc/minute
- VO2 ([2]; Example 9, 20 minutes after additional 1 mg/kg DNP at hour 3): 450-500 cc/minute
- tolerability of the procedure ([2]; Example 9, 6 hours): without any adverse effects
- rectal probe temperature increase over baseline, maximum ([2]; Example 9, DNP with methylene blue): 1.3 °C
- general toxicity ([2]; Example 9, at any time during treatment): no evidence of general toxicity
- VO2 ([2]; Example 9, declined by hour 3): 360-380 cc/minute
- fatigue ([2]; Example 10): notably fatigued at hour 5
- sweating ([2]; Example 10): sweat profusely
- VO2 ([2]; Example 10, 20 minutes after 1 mg/kg DNP, baseline 160 cc/min, interferon-alpha 6 hours before): approximately 210 cc/min
- VO2 ([2]; Example 10, 20 minutes after additional 2 mg/kg DNP): 420 cc/min
- VO2 ([2]; Example 10, 20 minutes after additional 2.0 mg/kg DNP): 360 cc/min
- VO2 ([2]; Example 10, declined two hours after last dose): 280 cc/min
- rectal temperature above normal baseline ([2]; Example 10, no efforts to prevent body heat loss): ≤ 1.3 °C
- VO2 ([2]; Example 10, peak 20 minutes after second dose of 1 mg/kg DNP): 250 cc/min
- lymphadenopathy (HIV; 2 weeks post-treatment): resolved
- HIV RNA (HIV; 4, 6 and 12 weeks post-treatment): non-detectable
- CD4+ T cell lymphocyte counts (HIV; by week 4, stable at week 6 and 12, pretreatment 250/mm^3): 380-420 cells/mm^3
- viral load (HIV; immediately after treatment day 5, pretreatment 400,000 copies/ml): 50,000 HIV-RNA copies/ml
